Reference: patent US20250003952A1, “SENOLYTIC DRUG SCREENING METHOD AND SENOLYTIC DRUG” (KYOTO UNIVERSITY, priority 2021, published 2025)
Peptide text beside a SMILES is read from it. * marks the point of attachment. Cbz = O=C(OCc1ccccc1)*

What was measured:
IMR90 cells [1] = assay: Secondary screening: senolytic activity, young vs senescent IMR90 cells, crystal violet; format: cell-based, human; settings: young vs Ras-induced senescent IMR90 cells; 5 μM and 10 μM; 72 hours; criterion of positivity 1.14 or more
Experimental: In the secondary screening, the agent sensitivity of young IMR90 cells and senescent IMR90 cells was compared. The senescent IMR90 cells were prepared by inducing an oncogenic Ras mutation. The young cells and the senescent cells were each seeded in a 96-well plate, and two days later, the candidate drugs obtained from the primary screening were treated at two concentrations of 5 μM and 10 μM. Surviving cells after 72 hours were fixed with formalin and stained with crystal violet. After that, crystal violet in each well was extracted with 2% Triton X100 and quantified (FIG. 31-1 and FIG. 31-2). Young cells and senescent cells were each treated with a solvent (DMSO), and the resulting cells were used as a negative control, and the survival rate compared to the negative control was calculated by the following expression. Furthermore, the agent sensitivity of the young cells and the senescent cells was compared and evaluated as senolytic activity (young cell viability/senescent cell viability). The criterion of positivity was a senolytic activity of 1.14 or more.
Viability(%)=(Sample/negative subject)×100
Senolytic activity=young cell viability/senescent cell viability

HIF-2α = HIF-2α protein (Western blot) and mRNA expression in IMR90 cells; format: cell-based, human
Source text: As a result, it was observed that the HIF-2α protein decreased in the nutlin 3b-treated group and the BI-D1870-treated group (upper diagram and lower diagram in FIG. 22).
An oncogenic Ras was introduced into young cells (within 1 month of continuous culture) of IMR90 cells to induce senescent cells (OIS). […] It is known that ubiquitination is induced by phosphorylation in the vicinity of a ubiquitination site (Hagai et al., 2012). The consensus sequences (K/R-K/R-x-x-S/T) for phosphorylation by Chk1 located at the N-terminus of HIF-2α were conserved, and these were named Motif1 (including Ser12 residues) and Motif2 (including Ser19 residues) (FIG. 40, SEQ ID NOs: 77 to 81).

IMR90 cells [2] = assay: Senolysis / cell death of young and Ras-induced senescent IMR90 cells; format: cell-based, human
Source text: Ras gene with oncogenic mutation was introduced into young cells (within 1 month of continuous culture) of IMR90 cells by retroviral infection to acquire senescent cells. […] The control received only DMSO treatment. Representative images of cells observed under a microscope are shown (FIG. 11).
An oncogenic mutated Ras gene was introduced into young cells (within 1 month of continuous culture) of IMR90 cells by retroviral infection to acquire stress-induced senescent cells. The young cells and the senescent cells were both treated with different concentrations of the RSK kinase inhibitor BI-D1870 for 96 hours to evaluate cell death.
An oncogenic mutated Ras gene was introduced into young cells (within 1 month of continuous culture) of IMR90 cells by retroviral infection to acquire stress-induced senescent cells. The young cells and the senescent cells of IMR90 were both transfected with an RSK1 siRNA (two types of siRNA #1 (SEQ ID NO: 7) or #2 (SEQ ID NO: 8) having different target sequences) or a control to knock down RSK1. Representative images of cells observed under a microscope are shown (upper diagram in FIG. 20).
An oncogenic Ras was introduced into young cells (within 1 month of continuous culture) of IMR90 cells to induce senescent cells (OIS). The young cells and the senescent cells of IMR90 were transfected with two HIF-2α-specific siRNAs (SEQ ID NO: 9 and SEQ ID NO: 10) having different target sequences to knock down HIF-2α.
An oncogenic Ras was introduced into young cells (within 1 month of continuous culture) of IMR90 cells to induce senescent cells (OIS). The young cells and the senescent cells of IMR90 were transfected with a BIM-specific siRNA to knock down BIM.
An oncogenic Ras was introduced into young cells (within 1 month of continuous culture) of IMR90 cells to induce senescent cells (OIS). In the young cells and the senescent cells of IMR90, HIF-2α alone or both HIF-2α and BIM were knocked down by using their respective specific siRNAs (SEQ ID NO: 9, SEQ ID NO: 10), and cell death was confirmed (FIG. 28).
The latter information consists of 12,655 ChIP datasets from 903 antigens (transcription factors and epigenetic regulators).

PGAM-Chk1 kinase binding = settings: cancer cells; Mikawa et al., 2020; cited from earlier work
human fibroblasts = assay: Lactate treatment of human fibroblasts; format: cell-based
Experimental: In order to explore the physiological significance of enhanced glycolysis in senescence, a conditioned medium consisting of senescent cells and non-senescent cells was prepared and added to human fibroblasts at the early passage. PGAM-Chk1 interaction was potentiated by culture supernatant from the senescent cells, but not potentiated in the control (FIG. 44). It was considered from this that a component potentiating the PGAM-Chk1 interaction was included in the culture supernatant from the senescent cells. Lactate was considered to be a candidate for such a component, and human fibroblasts were treated with lactate. […] GPR81 signaling is known to be partially involved in oncogenic modules including the Ras pathway (Ohno et al., 2018). In senescent cells or lactate-treated cells, it was observed that RSK1 kinase, which is downstream of the Ras pathway, was activated, accompanied by phosphorylation of Ser280 of Chk1 (Li et al., 2012), which is a known target of RSK (FIG. 49).

[3] = human fibroblasts treated with lactate

Row | Compound | senolytic activity (young cell viability/senescent cell viability) (IMR90 cells [1]) | other results
1 | COc1ccc(-c2ccc3c(N4CCOC[C@@H]4C)nc(N4CCOC[C@@H]4C)nc3n2)cc1CO [AZD8055] | have senolytic activity | 
2 | CC(C)CCN1c2nc(Nc3cc(F)c(O)c(F)c3)ncc2N(C)C(=O)C1C (stereo not drawn) [BI-D1870] |  | HIF-2α protein (HIF-2α; young and senescent cells, different concentrations for 96 hours): decreased; senolytic effect (cell death) (IMR90 cells [2]; young and senescent IMR90 cells, 96 hours, 10 μM or 20 μM): remarkable senolytic effect; PGAM-Chk1 kinase binding (PGAM-Chk1 kinase binding): inhibited; glycolytic metabolism (PGAM-Chk1 kinase binding): decreased
3 | Cc1ccc2nc(NCCN)c3ncc(C)n3c2c1 [BMS-345541] | have senolytic activity | 
4 | O=C(O)c1ccc2c(c1)nc(Nc1cccc(Cl)c1)c1ccncc12 [CX-4945] | have senolytic activity | 
5 | Cc1ccc(-n2nc(C(C)(C)C)cc2NC(=O)Nc2ccc(OCCN3CCOCC3)c3ccccc23)cc1 [Doramapimod (BIRB 796), Doramapimod] | have senolytic activity | 
6 | COc1ccc(-c2ccc3c(N4CCOCC4)nc(N4C[C@@H](C)O[C@@H](C)C4)nc3n2)cc1CO [KU-0063794] | have senolytic activity | 
7 | CC(C)C[C@@H](C=O)NC(=O)[C@H](CC(C)C)NC(=O)[C@H](CC(C)C)NC(=O)OCc1ccccc1 [MG132] (Cbz-Leu-Leu-Leu-aldehyde) |  | HIF-2α protein level under nutlin 3b treatment (HIF-2α; senescent (OIS) IMR90 cells treated with nutlin 3b plus proteasome inhibitor): remarkably restored
8 | CC[C@H](C)C(=O)O[C@H]1CCC=C2C=C[C@H](C)[C@H](CC[C@@H]3C[C@@H](O)CC(=O)O3)[C@H]21 [Mevastatin] | have senolytic activity | 
9 | Cc1ccc(C(=O)Nc2cccc(C(F)(F)F)c2)cc1Nc1nc(-c2cccnc2)nc2c1cnn2C [NVP-BHG712] | have senolytic activity | 
10 | CCOc1cc2ncc(C#N)c(Nc3ccc(OCc4ccccn4)c(Cl)c3)c2cc1NC(=O)/C=C/CN(C)C [Neratinib] | have senolytic activity | 
11 | CN(C)C1CCN(C(=O)c2ccc(NC(=O)Nc3ccc(-c4nc(N5CCOCC5)nc(N5CCOCC5)n4)cc3)cc2)CC1 [PF-05212384] | have senolytic activity | 
12 | CC(C)[C@H](NC(=O)c1ccc2ccccc2n1)C(=O)N[C@@H](CC(=O)O)C(=O)COc1c(F)cccc1F [QVD-Oph] |  | viability of senescent cells under nutlin 3b treatment (IMR90 cells [2]; senescent cells, nutlin 3b plus apoptosis inhibitor): restored
13 | CC(C)c1cc(-c2ccc(F)c3ccccc23)nc(N)n1 [RS-127445] | have senolytic activity | 
14 | C[S+]([O-])c1ccc(-c2nc(-c3ccncc3)c(-c3ccc(F)cc3)[nH]2)cc1 (stereo not drawn) [SB203580] | have senolytic activity | 
15 | CC(C)c1ccccc1Cc1cc(C(=O)Nc2ccc(S(=O)(=O)c3ccccc3C(C)(C)C)cc2)c(O)c(O)c1O [TW-37] | have senolytic activity | 
16 | CC(/C=C/C(=O)NO)=C\[C@@H](C)C(=O)c1ccc(N(C)C)cc1 [Trichostatin A (TSA), Trichostatin A] | have senolytic activity | 
17 | COC(=O)c1ccc2c(c1)NC(=O)/C2=C(\Nc1ccc(N(C)C(=O)CN2CCN(C)CC2)cc1)c1ccccc1 [Vargatef] | have senolytic activity | 
18 | CC(O)C(=O)O (stereo not drawn) [lactate] |  | SASP expression (human fibroblasts; [3]): stimulated; accumulation of HIF-2α (human fibroblasts; [3]): observed in a lactate concentration-dependent manner; enhancement of PGAM-Chk1 interaction (human fibroblasts; [3]): observed in a lactate concentration-dependent manner; p21 level vs control (human fibroblasts; [3]): did not provide a difference; phosphorylation of Ser12 of HIF-2α (human fibroblasts; [3]): observed in a lactate concentration-dependent manner; RSK1 kinase activation (accompanied by phosphorylation of Ser280 of Chk1) (human fibroblasts; lactate-treated cells): activated
19 | Verteporfin | have senolytic activity | 
